Source: US11040107B2, “Dosing regimens and related compositions and methods” (Apellis Pharmaceuticals, Inc., priority 2017, dated 2021)
Each block holds one molecule with its values, some of them ahead of it.

Key:
[1] = system: inflammatory cytokines in the lungs; experiment: Ascaris suum challenge model; assay type: in vivo, cynomolgus monkeys; details: nebulized 20 mg/day or 15 mg/kg/d for 14 days; during treatment and 28 days after cessation
[2] = system: RBCs from a patient with PNH; experiment: Modified Ham's test with flow cytometry for CD59 and C3d; assay type: cell-based, human
Protocol: A modified Ham's test was performed to assess the ability of compstatin analogs to protect PNH RBCs from complement-mediated lysis. […] Exposure to heat inactivated human serum was used as a control representing no significant complement-mediated lysis as complement is inactivated by heat. Exposure to acidified human serum and magnesium (Mg^2+) in the absence of complement inhibitors (pane labeled Mg^2+) was used as a control representing maximum lysis.
Following incubation, cells were stained with antibodies to CD59 and C3d. CD59 level permitted the classification of the PNH RBCs as Type I, Type II, or Type III. Staining for C3d, a product of C3 activation and cleavage was used as a marker of C3 and C3 activation product deposition (loading). Flow cytometric analysis was performed to assess CD59 and C3d on RBC surfaces and to quantify the percentages of Type I, Type II, and Type III cells present in various samples.

[3] = Phase 1 single and multiple ascending dose trial of inhaled CA28; assay type: in vivo, human; details: for adverse event: one subject
Protocol: In the single ascending dose part of the trial, 16 subjects were enrolled in four cohorts of four subjects each.
Four subjects were enrolled in the first cohort of the multiple ascending dose part of the trial. These subjects were to receive 14 consecutive days of treatment with a 60 mg/day dose of the drug. […] The trial was paused and subsequently resumed, with subjects receiving 30 mg/day. […] The trial was then terminated.

[4] = target: T1, complement component C3 (human) (human, UniProt P01024 23-1663); experiment: cell-based or functional assay
[5] = target: T1, complement component C3 (human); experiment: cell-based or functional assay; remark: listed apart in the source
[6] = target: T1, complement component C3 (human); experiment: cell-based or functional assay; remark: listed apart in the source
[7] = target: T1, complement component C3 (human); experiment: cell-based or functional assay; remark: listed apart in the source
[8] = target: T1, complement component C3 (human); experiment: cell-based or functional assay; remark: listed apart in the source

Molecule: CC[C@H](C)[C@H](NC(C)=O)C(=O)N[C@H]1CSSC[C@@H](C(=O)N[C@H](C(N)=O)[C@@H](C)O)NC(=O)[C@H](CCCNC(=N)N)NC(=O)[C@H](Cc2cnc[nH]2)NC(=O)[C@H](C)NC(=O)CNC(=O)[C@H](Cc2c[nH]c3ccccc23)NC(=O)[C@H](CC(=O)O)NC(=O)[C@H](CCC(N)=O)NC(=O)[C@H](Cc2cn(C)c3ccccc23)NC(=O)[C@H](C(C)C)NC1=O [CA28]
- levels of inflammatory cytokines in broncheoalveolar lavage fluid after allergen challenge [1]: had a pharmacological effect
- protection from complement-mediated lysis ([2]; 100 ug/ml or more): complete protection from complement-mediated lysis
- % C3 (Type I) ([2]; 1 micrograms/ml): 1.7%
- % C3 (Type III) ([2]; 1 micrograms/ml): 1.2%
- % C3 (Type III) ([2]; 4 micrograms/ml): 0.83%
- % C3 (Type III) ([2]; 8 micrograms/ml): 0.7%
- Type II % ([2]; 8 micrograms/ml): 66%
- % C3 (Type III) ([2]; 15 micrograms/ml): 0.98%
- Type I % ([2]; 15 micrograms/ml): 15%
- % C3 (Type II) ([2]; 25 micrograms/ml): 9.3%
- % C3 (Type III) ([2]; 25 micrograms/ml): 0.75%
- Type I % ([2]; 25 micrograms/ml): 14.96%
- % C3 (Type I) ([2]; 100 micrograms/ml): 0.08%
- % C3 (Type II) ([2]; 100 micrograms/ml): 0.92%
- % C3 (Type III) ([2]; 100 micrograms/ml): 0.1%
- Type III % ([2]; 100 micrograms/ml): 37.96%
- C3 loading on PNH red cells ([2]; 100 micrograms/ml compound or higher): virtually no C3 loading
- % C3 (Type I) ([2]; 500 micrograms/ml): 0.14%
- % C3 (Type II) ([2]; 500 micrograms/ml): 0.63%
- % C3 (Type III) ([2]; 500 micrograms/ml): 0.09%
- adverse event ([3]; 30 mg/day inhaled, after 10 days): signs and symptoms consistent with a potential bacterial infection
- adverse event ([3]; 60 mg/day inhaled, after nine days): signs and symptoms consistent with a potential bacterial infection
- safety and tolerability ([3]; single inhaled dose 20, 60, 150 or 350 mg): well tolerated

B5: CA28-2GS-BF (peptide)
peptide: ICVWQDWGAHRCTK
modifications: not fully specified; N-terminal acetyl; 1-methyl-tryptophan at position 4; disulfide bond Cys2-Cys12; AEEAc spacer between Thr13 and Lys; Lys side chain coupled to one end of a bifunctional linear 40 kD PEG of the GS type (glutaryl, amide plus ester linkage); C-terminal amide
- Q1 (Type III cells with C3d deposition) % Parent, modified Ham's test, at 50 ug/ml [6]: 0.01%
- Q2 (Type I and II cells with C3d deposition) % Parent, modified Ham's test, at 50 ug/ml [6]: 0.01%
- Q3 (Type III cells without significant C3d deposition) % Parent, modified Ham's test, at 50 ug/ml [6]: 61.5%
- Q4 (Type I and II cells without significant C3d deposition) % Parent, modified Ham's test, at 50 ug/ml [6]: 38.5%

B6: (CA28-AEEAc)8-PEG40k (peptide)
peptide: ICVWQDWGAHRCTK
modifications: N-terminal acetyl; 1-methyl-tryptophan at position 4; disulfide bond Cys2-Cys12; AEEAc spacer between Thr13 and Lys; Lys side chain coupled to one arm of an eight-arm 40 kD PEG (NOF SUNBRIGHT HGEO-400GS); C-terminal amide
- IC50 on a molar basis of the compound, classical complement inhibition assay [7]: ~260 nM
- IC50, classical complement inhibition assay, as a function of CA28 moiety concentration [5]: 1930 nM

B8: CA28-2TS-BF (peptide)
peptide: ICVWQDWGAHRCTK
modifications: not fully specified; N-terminal acetyl; 1-methyl-tryptophan at position 4; disulfide bond Cys2-Cys12; AEEAc spacer between Thr13 and Lys; Lys side chain coupled by a carbamate to one end of a bifunctional linear 40 kD PEG of the TS type; C-terminal amide
- IC50 (read off the curve): % inhibition of alternative pathway complement activation (LPS-coated plate, C3b deposition ELISA, human plasma) [B] [8]: ~400 nM

Other lines, results leading:

- IC50 (read off the curve): % inhibition of classical pathway complement activation (C3b deposition ELISA, human plasma) [4]: ~700 nM
B1: CA28-AEEAc-Lys(mPEG40K-succinyl) (peptide)
peptide: ICVWQDWGAHRCTK
modifications: N-terminal acetyl; 1-methyl-tryptophan at position 4; disulfide bond Cys2-Cys12; AEEAc spacer between Thr13 and Lys; linear monomethoxy 40 kD PEG (NOF SUNBRIGHT ME-400CS, succinyl linkage) on the Lys side chain; C-terminal amide

- IC50, classical complement inhibition assay (C3b deposition ELISA, human plasma) [5]: 1260 nM
B2: CA28-AEEAc-Lys-(PEG30k) (peptide)
peptide: ICVWQDWGAHRCTK
modifications: not fully specified; N-terminal acetyl; 1-methyl-tryptophan at position 4; disulfide bond Cys2-Cys12; AEEAc (8-amino-3,6-dioxaoctanoyl) spacer between Thr13 and Lys; linear monofunctional 30 kD PEG (NOF SUNBRIGHT ME-300GS) on the Lys side chain; C-terminal amide

- IC50 (read off the curve): % inhibition of classical pathway complement activation (C3b deposition ELISA, human plasma) [4]: ~700 nM
B3: CA28-AEEAc-Lys(mPEG40K-carbonyl) (peptide)
peptide: ICVWQDWGAHRCTK
modifications: N-terminal acetyl; 1-methyl-tryptophan at position 4; disulfide bond Cys2-Cys12; AEEAc spacer between Thr13 and Lys; linear monomethoxy 40 kD PEG (NOF SUNBRIGHT ME-400TS, carbonyl linkage) on the Lys side chain; C-terminal amide

- IC50 (read off the curve): % inhibition of classical pathway complement activation (C3b deposition ELISA, human plasma) [4]: ~700 nM
B4: CA28-AEEAc-Lys(mPEG40K-hexanoyl) (peptide)
peptide: ICVWQDWGAHRCTK
modifications: N-terminal acetyl; 1-methyl-tryptophan at position 4; disulfide bond Cys2-Cys12; AEEAc spacer between Thr13 and Lys; linear monomethoxy 40 kD PEG (NOF SUNBRIGHT ME-400HS, hexanoyl linkage) on the Lys side chain; C-terminal amide

- IC50 (read off the curve): % inhibition of classical pathway complement activation (C3b deposition ELISA, human plasma) [4]: ~700 nM
- IC50, classical complement inhibition assay (C3b deposition ELISA, human plasma) [5]: 1290 nM
B7: CA28-AEEAc-Lys-(PEG40k) (peptide)
peptide: ICVWQDWGAHRCTK
modifications: N-terminal acetyl; 1-methyl-tryptophan at position 4; disulfide bond Cys2-Cys12; AEEAc spacer between Thr13 and Lys; linear monomethoxy 40 kD PEG (NOF SUNBRIGHT ME-400GS, glutaryl linkage) on the Lys side chain; C-terminal amide
